Reference: ChEMBL document CHEMBL5724914, “Linking interpersonal differences in gut microbiota composition and drug biotransformation activity” (2024)

Tests used:
[1] = The drug is tested on Z-025 corresponding to rabbit gut metagenome with ENA study accession number: PRJEB37062 and ENA sample accession number: ERS12561824 for biotransformation under anaerobic condition. The drug concentrations were measured over 9 timepoints collected between 0 and 24 hours of incubation by liquid-chromatography-coupled mass spectrometry (LC–MS); conditions: 2 µM
[2] = The drug is tested on WLS-098 corresponding to human gut metagenome with ENA study accession number: PRJEB37062 and ENA sample accession number: ERS12561754 for biotransformation under anaerobic condition. The drug concentrations were measured over 9 timepoints collected between 0 and 24 hours of incubation by liquid-chromatography-coupled mass spectrometry (LC–MS); conditions: 2 µM
[3] = The drug is tested on Z-022 corresponding to mouse gut metagenome with ENA study accession number: PRJEB37062 and ENA sample accession number: ERS12561821 for biotransformation under anaerobic condition. The drug concentrations were measured over 9 timepoints collected between 0 and 24 hours of incubation by liquid-chromatography-coupled mass spectrometry (LC–MS); conditions: 2 µM
[4] = human gut metagenome, 24 h, 2 µM
[5] = human gut metagenome, 24 h, 2 µM; remark: listed apart in the source
[6] = human gut metagenome, 24 h, 2 µM; remark: listed apart in the source
[7] = The drug is tested on Z-001 corresponding to mouse gut metagenome with ENA study accession number: PRJEB37062 and ENA sample accession number: ERS12561801 for biotransformation under anaerobic condition. The drug concentrations were measured over 9 timepoints collected between 0 and 24 hours of incubation by liquid-chromatography-coupled mass spectrometry (LC–MS); conditions: 2 µM
[8] = human gut metagenome, 24 h, 2 µM; remark: listed apart in the source
[9] = human gut metagenome, 24 h, 2 µM; remark: listed apart in the source
[10] = The drug is tested on WLS-038 corresponding to human gut metagenome with ENA study accession number: PRJEB37062 and ENA sample accession number: ERS12561745 for biotransformation under anaerobic condition. The drug concentrations were measured over 9 timepoints collected between 0 and 24 hours of incubation by liquid-chromatography-coupled mass spectrometry (LC–MS); conditions: 2 µM
[11] = human gut metagenome, 24 h, 2 µM; remark: listed apart in the source
[12] = The drug is tested on WLS-240 corresponding to human gut metagenome with ENA study accession number: PRJEB37062 and ENA sample accession number: ERS12561773 for biotransformation under anaerobic condition. The drug concentrations were measured over 9 timepoints collected between 0 and 24 hours of incubation by liquid-chromatography-coupled mass spectrometry (LC–MS); conditions: 2 µM
[13] = The drug is tested on Z-005 corresponding to metagenome with ENA study accession number: PRJEB37062 and ENA sample accession number: ERS12561805 for biotransformation under anaerobic condition. The drug concentrations were measured over 9 timepoints collected between 0 and 24 hours of incubation by liquid-chromatography-coupled mass spectrometry (LC–MS); conditions: 2 µM
[14] = The drug is tested on Z-017 corresponding to mouse gut metagenome with ENA study accession number: PRJEB37062 and ENA sample accession number: ERS12561816 for biotransformation under anaerobic condition. The drug concentrations were measured over 9 timepoints collected between 0 and 24 hours of incubation by liquid-chromatography-coupled mass spectrometry (LC–MS); conditions: 2 µM
[15] = The drug is tested on WLS-073 corresponding to human gut metagenome with ENA study accession number: PRJEB37062 and ENA sample accession number: ERS12561749 for biotransformation under anaerobic condition. The drug concentrations were measured over 9 timepoints collected between 0 and 24 hours of incubation by liquid-chromatography-coupled mass spectrometry (LC–MS); conditions: 2 µM
[16] = The drug is tested on Z-030 corresponding to mouse gut metagenome with ENA study accession number: PRJEB37062 and ENA sample accession number: ERS12561829 for biotransformation under anaerobic condition. The drug concentrations were measured over 9 timepoints collected between 0 and 24 hours of incubation by liquid-chromatography-coupled mass spectrometry (LC–MS); conditions: 2 µM
[17] = human gut metagenome, 24 h, 2 µM; remark: listed apart in the source
[18] = The drug is tested on WLS-006 corresponding to human gut metagenome with ENA study accession number: PRJEB37062 and ENA sample accession number: ERS12561741 for biotransformation under anaerobic condition. The drug concentrations were measured over 9 timepoints collected between 0 and 24 hours of incubation by liquid-chromatography-coupled mass spectrometry (LC–MS); conditions: 2 µM
[19] = human gut metagenome, 24 h, 2 µM; remark: listed apart in the source
[20] = The drug is tested on WLS-350 corresponding to human gut metagenome with ENA study accession number: PRJEB37062 and ENA sample accession number: ERS12561789 for biotransformation under anaerobic condition. The drug concentrations were measured over 9 timepoints collected between 0 and 24 hours of incubation by liquid-chromatography-coupled mass spectrometry (LC–MS); conditions: 2 µM
Also: call rule not given here.

SMILES: CC(C)c1nc(N(C)S(C)(=O)=O)nc(-c2ccc(F)cc2)c1/C=C/[C@@H](O)C[C@@H](O)CC(=O)[O-].CC(C)c1nc(N(C)S(C)(=O)=O)nc(-c2ccc(F)cc2)c1/C=C/[C@@H](O)C[C@@H](O)CC(=O)[O-].[Ca+2] [ROSUVASTATIN CALCIUM]
- Bacterial Biotransformation [1]: Compound NOT metabolized
- Bacterial Biotransformation [2]: Compound metabolized
- Bacterial Biotransformation [3]: Compound NOT metabolized
- Bacterial Biotransformation [4]: Compound NOT metabolized
- Bacterial Biotransformation [5]: Compound metabolized
- Bacterial Biotransformation [6]: Compound NOT metabolized
- Bacterial Biotransformation [7]: Compound NOT metabolized
- Bacterial Biotransformation [8]: Compound metabolized
- Bacterial Biotransformation [9]: Compound NOT metabolized
- Bacterial Biotransformation [10]: Compound NOT metabolized
- Bacterial Biotransformation [11]: Compound metabolized
- Bacterial Biotransformation [12]: Compound metabolized
- Bacterial Biotransformation [13]: Compound NOT metabolized
- Bacterial Biotransformation [14]: Compound NOT metabolized
- Bacterial Biotransformation [15]: Compound NOT metabolized
- Bacterial Biotransformation [16]: Compound NOT metabolized
- Bacterial Biotransformation [17]: Compound metabolized
- Bacterial Biotransformation [18]: Compound metabolized
- Bacterial Biotransformation [19]: Compound metabolized
- Bacterial Biotransformation [20]: Compound metabolized

SMILES: COc1ccc(CN2CCNCC2)c(OC)c1OC.Cl.Cl [TRIMETAZIDINE DIHYDROCHLORIDE]
- Bacterial Biotransformation [1]: Compound NOT metabolized
- Bacterial Biotransformation [2]: Compound NOT metabolized
- Bacterial Biotransformation [3]: Compound NOT metabolized
- Bacterial Biotransformation [4]: Compound NOT metabolized
- Bacterial Biotransformation [5]: Compound NOT metabolized
- Bacterial Biotransformation [6]: Compound NOT metabolized
- Bacterial Biotransformation [7]: Compound NOT metabolized
- Bacterial Biotransformation [8]: Compound NOT metabolized
- Bacterial Biotransformation [9]: Compound NOT metabolized
- Bacterial Biotransformation [10]: Compound NOT metabolized
- Bacterial Biotransformation [11]: Compound NOT metabolized
- Bacterial Biotransformation [12]: Compound NOT metabolized
- Bacterial Biotransformation [13]: Compound NOT metabolized
- Bacterial Biotransformation [14]: Compound NOT metabolized
- Bacterial Biotransformation [15]: Compound NOT metabolized
- Bacterial Biotransformation [16]: Compound NOT metabolized
- Bacterial Biotransformation [17]: Compound NOT metabolized
- Bacterial Biotransformation [18]: Compound NOT metabolized
- Bacterial Biotransformation [19]: Compound NOT metabolized
- Bacterial Biotransformation [20]: Compound NOT metabolized

SMILES: CN(C)CCC=C1c2ccccc2COc2ccccc21 [DOXEPIN]
- Bacterial Biotransformation [1]: Compound NOT metabolized
- Bacterial Biotransformation [2]: Compound metabolized
- Bacterial Biotransformation [3]: Compound NOT metabolized
- Bacterial Biotransformation [4]: Compound NOT metabolized
- Bacterial Biotransformation [5]: Compound metabolized
- Bacterial Biotransformation [6]: Compound metabolized
- Bacterial Biotransformation [7]: Compound NOT metabolized
- Bacterial Biotransformation [8]: Compound metabolized
- Bacterial Biotransformation [9]: Compound NOT metabolized
- Bacterial Biotransformation [10]: Compound NOT metabolized
- Bacterial Biotransformation [11]: Compound NOT metabolized
- Bacterial Biotransformation [12]: Compound metabolized
- Bacterial Biotransformation [13]: Compound NOT metabolized
- Bacterial Biotransformation [14]: Compound NOT metabolized
- Bacterial Biotransformation [15]: Compound metabolized
- Bacterial Biotransformation [16]: Compound NOT metabolized
- Bacterial Biotransformation [17]: Compound NOT metabolized
- Bacterial Biotransformation [18]: Compound NOT metabolized
- Bacterial Biotransformation [19]: Compound metabolized
- Bacterial Biotransformation [20]: Compound NOT metabolized

SMILES: Nc1nc(N)nc(-c2cc(Cl)ccc2Cl)n1.O=C(O)/C=C\C(=O)O [IRSOGLADINE MALEATE]
- Bacterial Biotransformation [1]: Compound metabolized
- Bacterial Biotransformation [2]: Compound metabolized
- Bacterial Biotransformation [3]: Compound NOT metabolized
- Bacterial Biotransformation [4]: Compound NOT metabolized
- Bacterial Biotransformation [5]: Compound metabolized
- Bacterial Biotransformation [6]: Compound NOT metabolized
- Bacterial Biotransformation [7]: Compound NOT metabolized
- Bacterial Biotransformation [8]: Compound NOT metabolized
- Bacterial Biotransformation [9]: Compound NOT metabolized
- Bacterial Biotransformation [10]: Compound NOT metabolized
- Bacterial Biotransformation [11]: Compound NOT metabolized
- Bacterial Biotransformation [12]: Compound NOT metabolized
- Bacterial Biotransformation [13]: Compound NOT metabolized
- Bacterial Biotransformation [14]: Compound NOT metabolized
- Bacterial Biotransformation [15]: Compound NOT metabolized
- Bacterial Biotransformation [16]: Compound NOT metabolized
- Bacterial Biotransformation [17]: Compound NOT metabolized
- Bacterial Biotransformation [18]: Compound NOT metabolized
- Bacterial Biotransformation [19]: Compound NOT metabolized
- Bacterial Biotransformation [20]: Compound NOT metabolized

SMILES: C[C@]12CCC(=O)C=C1[C@@H]1C[C@@H]1[C@H]1[C@@H]3[C@@H]4C[C@@H]4[C@@]4(CCC(=O)O4)[C@@]3(C)CC[C@@H]12 [DROSPIRENONE]
- Bacterial Biotransformation [1]: Compound NOT metabolized
- Bacterial Biotransformation [2]: Compound NOT metabolized
- Bacterial Biotransformation [3]: Compound NOT metabolized
- Bacterial Biotransformation [4]: Compound metabolized
- Bacterial Biotransformation [5]: Compound metabolized
- Bacterial Biotransformation [6]: Compound metabolized
- Bacterial Biotransformation [7]: Compound NOT metabolized
- Bacterial Biotransformation [8]: Compound metabolized
- Bacterial Biotransformation [9]: Compound NOT metabolized
- Bacterial Biotransformation [10]: Compound metabolized
- Bacterial Biotransformation [11]: Compound NOT metabolized
- Bacterial Biotransformation [12]: Compound metabolized
- Bacterial Biotransformation [13]: Compound metabolized
- Bacterial Biotransformation [14]: Compound metabolized
- Bacterial Biotransformation [15]: Compound metabolized
- Bacterial Biotransformation [16]: Compound NOT metabolized
- Bacterial Biotransformation [17]: Compound metabolized
- Bacterial Biotransformation [18]: Compound metabolized
- Bacterial Biotransformation [19]: Compound metabolized
- Bacterial Biotransformation [20]: Compound NOT metabolized
